# Strand notation (5' to 3'): a small letter for the sugar, then the base; units joined by * are phosphorothioate-linked, units joined directly phosphodiester-linked; [ ] holds rarer units or linkages, { } end groups; capitals alone tell only the bases. e = 2'-O-(2-methoxyethyl) (MOE); [5mC] = 5-methylcytosine; d = 2'-deoxy (DNA)
# Tests used:
# Assay type in all cases: in vivo, mouse
# [1] = Total and full-length antisense compound concentrations in liver and kidney (Example 4, Table 42); settings: C57/BL6 mice; single i.p. dose; 48 h; dose not given
# Procedure: (§1) Eight-week old male C57/BL6 mice (Jackson Laboratory, Bar Harbor, Me.) were administered a single dose of GCGR oligonucleotide by intraperitoneal injection at a concentration of […]. Each dose group consisted of four animals. Shown in Table 31 are the sequences, motifs and conjugates of the GCGR antisense compounds used in this study. Bolded residues indicate 2′-O-methoxyethyl (2′-MOE) moieties. All compounds comprise phosphorothioate internucleoside linkages throughout and each cytosine is replaced with 5-methylcytosine. ISIS 386626, ISIS 386627 and ISIS 386628 further comprise a C16 conjugate group attached to the 2′-O position of the sugar via a diamide linkage (2′-OCH2C(═O)N(H)(CH2)4N(H)C(═O)—(CH2)15CH3). GCGR antisense compounds target published GCGR sequences, including Genbank® Accession No. BC031885.1 (SEQ ID NO: 7).
# (§2) Mice were sacrificed 48 hours following injection to determine serum transaminase levels (Table 32); liver, white adipose tissue (WAT), spleen and kidney weight (Table 33); cholesterol, triglyceride and glucose levels (Table 34); GCGR mRNA levels (Tables 35-41); and full-length and total oligonucleotide concentration in liver and kidney (Table 42). Endpoints were assessed using methods described herein and well known to those of ordinary skill in the art. Data is included from a pre-treatment bleed (Pre-Bleed) and post-treatment bleed (Post-Bleed).
# Treatment with the 2-10-2 MOE gapmers led to a significant dose-dependent decrease in GCGR mRNA expression. […] To determine whether the observed increase in efficiency with the short antisense compounds is due to an increase in antisense compound accumulation, full-length and total antisense compound concentration in the liver and kidney were determined.
# GCGR mRNA [2] = test: GCGR mRNA levels in liver of C57/BL6 mice, single i.p. dose (Example 4, Tables 35-41); settings: 48 h
# Procedure, shortened: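 Male C57/BL6 mice, eight weeks old, four per group, received one i.p. dose of 2′-MOE phosphorothioate GCGR antisense oligonucleotide, some C16-conjugated, at 6.25, 12.5, 25 or 50 mg. Liver GCGR mRNA measured by real-time PCR 48 h post-dose; expressed as percent of saline control.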
# [3] = Triglyceride, cholesterol and glucose levels, pre-bleed and post-bleed (Example 4, Table 34); design: TRIG Pre-Bleed / TRIG Post-Bleed / CHOL Pre-Bleed / CHOL Post-Bleed / Glucose Pre-Bleed / Glucose Post-Bleed: unit not given here; settings: C57/BL6 mice; for CHOL Pre-Bleed / Glucose Pre-Bleed / TRIG Pre-Bleed: pre-treatment bleed; for CHOL Post-Bleed / Glucose Post-Bleed / TRIG Post-Bleed: post-treatment bleed, 48 h
# GCGR mRNA [4] = test: GCGR mRNA levels in liver and estimated ED50, C57/BL6 mice, single i.p. dose (Example 5, Tables 44, 45)
# Procedure: Eight-week old male C57/BL6 mice (Jackson Laboratory, Bar Harbor, Me.) were administered a single dose of GCGR antisense compound by intraperitonel (i.p.) injection at a concentration of 10, 3.2, 1, and 0.32 μmol·kg. Each dose group consisted of four animals. Shown in Table 43 are the sequences, motifs and conjugates of the GCGR antisense compounds used in this study. Bolded residues indicate 2′-O-methoxyethyl (2′-MOE) modifications and the italicized residues indicate methyleneoxy (4′-CH2—O-2′) BNA modifications. All antisense compounds comprise phosphorothioate internucleoside linkages throughout and each cytosine is replaced with 5-methylcytosine. GCGR antisense compounds target published GCGR nucleic acids, including Genbank Accession No. BC031885.1 (SEQ ID NO: 7).
# To determine whether the phenotypic changes shown above correlated with a decrease in GCGR mRNA, treated animals were evaluated for levels of target mRNA in liver by RT, real time PCR according to methods described herein. Table 44 show results from direct comparisons of the antisense compounds targeting GCGR nucleic acid for their effect on target expression. Results are expressed as percent of saline control.
# [5] = Organ weights: liver, white adipose tissue, spleen, kidney (Example 4, Table 33); settings: 48 h, C57/BL6 mice
# Procedure: as §1, §2
substance,measurement,setting,value
148364 (antisense eT*eG*e[5mC]*eA*e[5mC]*dT*dT*dT*dG*dT*dG*dG*dT*dA*d[5mC]*e[5mC]*eA*eA*eG*eG) [compound 148364],"Full-length antisense compound concentration, Kidney",[1],58 µg/g
same,"Full-length antisense compound concentration, Liver",[1],46 µg/g
same,"Total antisense compound concentration, Kidney",[1],90 µg/g
same,"Total antisense compound concentration, Liver",[1],54 µg/g
same,GCGR mRNA levels in liver,"GCGR mRNA [2]; 6.25 mg/kg single i.p., Table 35 comparison ISIS 148364 & ISIS 386626",62% of saline control
same,GCGR mRNA levels in liver,"GCGR mRNA [2]; 6.25 mg/kg single i.p., Table 36 comparison ISIS 148364 & ISIS 386627",86% of saline control
same,GCGR mRNA levels in liver,"GCGR mRNA [2]; 6.25 mg/kg single i.p., Table 37 comparison ISIS 148364 & ISIS 386593",86% of saline control
same,GCGR mRNA levels in liver,"GCGR mRNA [2]; 6.25 mg/kg single i.p., Table 38 comparison ISIS 148364 & ISIS 386628",101% of saline control
same,GCGR mRNA levels in liver,"GCGR mRNA [2]; 6.25 mg/kg single i.p., Table 39 comparison ISIS 148364 & ISIS 386594",96% of saline control
same,GCGR mRNA levels in liver,"GCGR mRNA [2]; 12.5 mg/kg single i.p., Table 35 comparison ISIS 148364 & ISIS 386626",87% of saline control
same,GCGR mRNA levels in liver,"GCGR mRNA [2]; 12.5 mg/kg single i.p., Table 36 comparison ISIS 148364 & ISIS 386627",105% of saline control
same,GCGR mRNA levels in liver,"GCGR mRNA [2]; 12.5 mg/kg single i.p., Table 37 comparison ISIS 148364 & ISIS 386593",105% of saline control
same,GCGR mRNA levels in liver,"GCGR mRNA [2]; 12.5 mg/kg single i.p., Table 38 comparison ISIS 148364 & ISIS 386628",98% of saline control
same,GCGR mRNA levels in liver,"GCGR mRNA [2]; 12.5 mg/kg single i.p., Table 39 comparison ISIS 148364 & ISIS 386594",102% of saline control
same,GCGR mRNA levels in liver,"GCGR mRNA [2]; 25 mg/kg single i.p., Table 35 comparison ISIS 148364 & ISIS 386626",79% of saline control
same,GCGR mRNA levels in liver,"GCGR mRNA [2]; 25 mg/kg single i.p., Table 36 comparison ISIS 148364 & ISIS 386627",87% of saline control
same,GCGR mRNA levels in liver,"GCGR mRNA [2]; 25 mg/kg single i.p., Table 37 comparison ISIS 148364 & ISIS 386593",74% of saline control
same,GCGR mRNA levels in liver,"GCGR mRNA [2]; 25 mg/kg single i.p., Table 38 comparison ISIS 148364 & ISIS 386628",77% of saline control
same,GCGR mRNA levels in liver,"GCGR mRNA [2]; 25 mg/kg single i.p., Table 39 comparison ISIS 148364 & ISIS 386594",98% of saline control
same,GCGR mRNA levels in liver,"GCGR mRNA [2]; 50 mg/kg single i.p., Table 35 comparison ISIS 148364 & ISIS 386626",36% of saline control
same,GCGR mRNA levels in liver,"GCGR mRNA [2]; 50 mg/kg single i.p., Table 36 comparison ISIS 148364 & ISIS 386627",63% of saline control
same,GCGR mRNA levels in liver,"GCGR mRNA [2]; 50 mg/kg single i.p., Table 37 comparison ISIS 148364 & ISIS 386593",56% of saline control
same,GCGR mRNA levels in liver,"GCGR mRNA [2]; 50 mg/kg single i.p., Table 38 comparison ISIS 148364 & ISIS 386628",42% of saline control
same,GCGR mRNA levels in liver,"GCGR mRNA [2]; 50 mg/kg single i.p., Table 39 comparison ISIS 148364 & ISIS 386594",59% of saline control
same,CHOL Pre-Bleed,[3]; 6.25 mg/kg group,86
same,Glucose Pre-Bleed,[3]; 6.25 mg/kg group,226
same,TRIG Pre-Bleed,[3]; 6.25 mg/kg group,86
same,CHOL Post-Bleed,[3]; 6.25 mg/kg single i.p.,89
same,Glucose Post-Bleed,[3]; 6.25 mg/kg single i.p.,215
same,TRIG Post-Bleed,[3]; 6.25 mg/kg single i.p.,162
same,CHOL Pre-Bleed,[3]; 12.5 mg/kg group,85
same,Glucose Pre-Bleed,[3]; 12.5 mg/kg group,198
same,TRIG Pre-Bleed,[3]; 12.5 mg/kg group,106
same,CHOL Post-Bleed,[3]; 12.5 mg/kg single i.p.,89
same,Glucose Post-Bleed,[3]; 12.5 mg/kg single i.p.,256
same,TRIG Post-Bleed,[3]; 12.5 mg/kg single i.p.,179
same,CHOL Pre-Bleed,[3]; 25 mg/kg group,83
same,Glucose Pre-Bleed,[3]; 25 mg/kg group,219
same,TRIG Pre-Bleed,[3]; 25 mg/kg group,115
same,CHOL Post-Bleed,[3]; 25 mg/kg single i.p.,96
same,Glucose Post-Bleed,[3]; 25 mg/kg single i.p.,239
same,TRIG Post-Bleed,[3]; 25 mg/kg single i.p.,200
same,CHOL Pre-Bleed,[3]; 50 mg/kg group,81
same,Glucose Pre-Bleed,[3]; 50 mg/kg group,207
same,TRIG Pre-Bleed,[3]; 50 mg/kg group,110
same,CHOL Post-Bleed,[3]; 50 mg/kg single i.p.,94
same,Glucose Post-Bleed,[3]; 50 mg/kg single i.p.,228
same,TRIG Post-Bleed,[3]; 50 mg/kg single i.p.,177
same,GCGR mRNA levels in liver,GCGR mRNA [4]; 0.32 μmol/kg single i.p.,105% of saline control
same,GCGR mRNA levels in liver,GCGR mRNA [4]; 1 μmol/kg single i.p.,106% of saline control
same,GCGR mRNA levels in liver,GCGR mRNA [4]; 3.2 μmol/kg single i.p.,73% of saline control
same,GCGR mRNA levels in liver,GCGR mRNA [4]; 10 μmol/kg single i.p.,38% of saline control
same,Organ weight: Kidney,[5]; 6.25 mg/kg single i.p.,104 % saline control
same,Organ weight: Liver,[5]; 6.25 mg/kg single i.p.,101 % saline control
same,Organ weight: Spleen,[5]; 6.25 mg/kg single i.p.,113 % saline control
same,Organ weight: WAT,[5]; 6.25 mg/kg single i.p.,89 % saline control
same,Organ weight: Kidney,[5]; 12.5 mg/kg single i.p.,108 % saline control
same,Organ weight: Liver,[5]; 12.5 mg/kg single i.p.,100 % saline control
same,Organ weight: Spleen,[5]; 12.5 mg/kg single i.p.,96 % saline control
same,Organ weight: WAT,[5]; 12.5 mg/kg single i.p.,84 % saline control
same,Organ weight: Kidney,[5]; 25 mg/kg single i.p.,112 % saline control
same,Organ weight: Liver,[5]; 25 mg/kg single i.p.,103 % saline control
same,Organ weight: Spleen,[5]; 25 mg/kg single i.p.,115 % saline control
same,Organ weight: WAT,[5]; 25 mg/kg single i.p.,75 % saline control
same,Organ weight: Kidney,[5]; 50 mg/kg single i.p.,108 % saline control
same,Organ weight: Liver,[5]; 50 mg/kg single i.p.,103 % saline control
same,Organ weight: Spleen,[5]; 50 mg/kg single i.p.,123 % saline control
same,Organ weight: WAT,[5]; 50 mg/kg single i.p.,80 % saline control
